Test results taken from PubChem BioAssay AID2060333 (Molecular Pharmacology Branch, DTP, NCI, 2025).
Where “and” joins values, the source holds several entries; their conditions need not be identical. Identical values can stand only once. Each block holds one molecule with its values, some of them ahead of it.

System: 845751-090-R-J2-PDC tumor spheroid viability
Assay: Anticancer human tumor 845751-090-R-J2-PDC patient-derived head and neck squamous carcinoma cell line growth inhibition [IpAb]
Conditions: spheroids with HUVEC and MSC; for viability, T/C: stronger effect = lower value
Source text: Combinatorial screen of targeted agents with ipatasertib and abemaciclib in multi-cell type tumor spheroids
A high-throughput screen of multi-cell type tumor spheroids was designed to identify active combinations of targeted small molecules and ipatasertib or abemaciclib. Complex spheroids include a stromal component modeled by human endothelial cells (HUVEC) and fibroblasts modeled by human mesenchymal stem cells (MSCs). The concentration ranges selected for each drug and investigational agent were based upon clinically achievable concentrations if the clinical Cmax of the agent was known.
Compounds. The drugs and investigational agents: ipatasertib (NSC767898), abemaciclib(NSC768073), selumetinib (NSC741078), trametinib (758246), adavosertib (NSC754352), everolimus (NSC733504), sapanisertib (NSC764658), vemurafenib (NSC761431), venetoclax (NSC766270), copanlisib (NSC809693), apelisib (NSC765974), palbociblib (NSC758247), vemurafenib (NSC761431), dabrafenib (NSC764134), ravoxertinib (NSC781343), BMS-387032 (NSC767048), sotorasib (NSC818433), talazoparib (NSC767125) and afursertib (NSC778305), were obtained from the National Cancer Institute (NCI) Developmental Therapeutics Program Chemical Repository. The FDA-approved anticancer drug set is available from the NCI Developmental Therapeutics Program. […] The stock solutions were prepared in dimethyl sulfoxide (DMSO, Sigma-Aldrich, St. Louis, MO, cat. D2650) at 800-fold the tested concentration and stored at -70 degrees C prior to their use. All drugs and investigational agents were tested over a range starting from a high concentration at or near the clinical Cmax and decreasing in half-log increments. If the clinical Cmax for an agent had not been determined, the highest concentration tested was 10 microM.
NCI60 Cell Culture. NCI60 cell lines were obtained from the NCI Developmental Therapeutics Program Tumor Repository. For each lot of cells, the Repository performed Applied Biosystems AmpFLSTR Identifiler testing with PCR amplification to confirm consistency with the published Identifier STR profile for each cell line. Cells were kept in continuous culture for no more than 20 passages. The optimal seeding densities for each of the cell lines at each time point assessed were determined prior to performing the concentration response studies. Briefly, the NCI60 human tumor lines were grown as monolayers in RPMI 1640 medium supplemented with 10% FBS and 2 mmol/L L-glutamine.
An additional 9 lines were from the NCI60 cell line panel including MDA-MB-231 breast carcinoma, MDA-MB-468 breast carcinoma, MCF7 breast carcinoma, Hs578T breast carcinoma, MALME-3M melanoma, SK-MEL-2 melanoma, SK-OV-3 ovarian carcinoma, DU-145 prostate carcinoma, PC-3 prostate carcinoma, all cell lines along with major genetic alterations are listed on Table 2. Pooled donor human umbilical vein endothelial cells (HUVEC, Lonza, cat. CC-2519) and human mesenchymal stem cells (hMSC, Lonza, cat. PT-2501) were purchased from Lonza (Walkersville, MD).
PDMR cell lines were grown in complete medium (DC medium): Dulbecco's modified Eagle's medium (DMEM)/F12 supplemented with 5% fetal bovine serum (FBS), 2 mM L-glutamine, 100 U/mL penicillin and 100 µg/ml streptomycin, 0.4 µg/ml hydrocortisone, 10 ng/ml epidermal growth factor (EGF) recombinant human protein, 24 µg/mL adenine, and 0.1 mg/mL primocin. During culture from frozen stock vials, PDMR cells were cultured in the same medium containing 10 µM Y-27632 (see Table 3). The PDCs were cultured in complete DMEM/F12 media without 10 microM Y-27632 dihydrochloride for at least two passages prior to the screen. The pooled donor HUVEC and hMSC were cultured in endothelial cell growth medium 2 (PromoCell, Heidelberg, Germany, cat. C-22011) and mesenchymal stem cell growth medium 2 (PromoCell, cat. C-28009), respectively. For all experiments, HUVEC and hMSC were used at passages </=5.
[…]

[1] = curve of first compound, second compound 0.1 µM
[2] = curve of first compound, second compound 0.316 µM
[3] = curve of first compound, second compound 1 µM
[4] = curve of first compound, second compound 3.16 µM
[5] = curve of first compound, second compound 10 µM
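Further: spheroids exposed to compounds for 7 days before readout.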
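Wherever viability, T/C is given: CTG3D luminescence normalised so that 100% = DMSO vehicle control.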

SMILES: CC(C)(C)c1cnc(CSc2cnc(NC(=O)C3CCNCC3)s2)o1 + CC(C)NCC(C(=O)N1CCN(c2ncnc3c2C(C)CC3O)CC1)c1ccc(Cl)cc1
IC50 [1]: 30.1 nM | IC50 [2]: < 9.49 nM | IC50 [3]: < 9.49 nM | IC50 [4]: < 9.49 nM | IC50 [5]: < 9.49 nM | viability, T/C (second compound 0.1 µM, first compound 0.00949 µM): 88.9% | viability, T/C (second compound 0.1 µM, first compound 0.03 µM): 50.1% | viability, T/C (second compound 0.1 µM, first compound 0.0949 µM): 7.88% | viability, T/C (second compound 0.1 µM, first compound 0.3 µM): 0.63% | viability, T/C (second compound 0.1 µM, first compound 0.949 µM): 0.78% | viability, T/C (second compound 0.1 µM, first compound 3 µM): 0.94% | viability, T/C (second compound 0.316 µM, first compound 0.00949 µM): 34.4% | viability, T/C (second compound 0.316 µM, first compound 0.03 µM): 40.4% | viability, T/C (second compound 0.316 µM, first compound 0.0949 µM): 9.45% | viability, T/C (second compound 0.316 µM, first compound 0.3 µM): 0.23% | viability, T/C (second compound 0.316 µM, first compound 0.949 µM): 0.27% | viability, T/C (second compound 0.316 µM, first compound 3 µM): 0.95% | viability, T/C (second compound 1 µM, first compound 0.00949 µM): 27% | viability, T/C (second compound 1 µM, first compound 0.03 µM): 28.8% | viability, T/C (second compound 1 µM, first compound 0.0949 µM): 10.8% | viability, T/C (second compound 1 µM, first compound 0.3 µM): 0.59% | viability, T/C (second compound 1 µM, first compound 0.949 µM): 0.34% | viability, T/C (second compound 1 µM, first compound 3 µM): 0.55% | viability, T/C (second compound 3.16 µM, first compound 0.00949 µM): 27.4% | viability, T/C (second compound 3.16 µM, first compound 0.03 µM): 27.7% | viability, T/C (second compound 3.16 µM, first compound 0.0949 µM): 9.06% | viability, T/C (second compound 3.16 µM, first compound 0.3 µM): 0.29% | viability, T/C (second compound 3.16 µM, first compound 0.949 µM): 0.31% | viability, T/C (second compound 3.16 µM, first compound 3 µM): 0.87% | viability, T/C (second compound 10 µM, first compound 0.00949 µM): 14.1% | viability, T/C (second compound 10 µM, first compound 0.03 µM): 12.7% | viability, T/C (second compound 10 µM, first compound 0.0949 µM): 3.48% | viability, T/C (second compound 10 µM, first compound 0.3 µM): 1.09% | viability, T/C (second compound 10 µM, first compound 0.949 µM): 0.27% | viability, T/C (second compound 10 µM, first compound 3 µM): 1.61%

SMILES: CC(C)n1nc(-c2ccc3oc(N)nc3c2)c2c(N)ncnc21 + CC(C)NCC(C(=O)N1CCN(c2ncnc3c2C(C)CC3O)CC1)c1ccc(Cl)cc1
IC50 [1]: 1.3 nM | IC50 [2]: < 0.316 nM | IC50 [3]: < 0.316 nM | IC50 [4]: < 0.316 nM | IC50 [5]: < 0.316 nM | viability, T/C (second compound 0.1 µM, first compound 0.000316 µM): 55.2% | viability, T/C (second compound 0.1 µM, first compound 0.001 µM): 48.8% | viability, T/C (second compound 0.1 µM, first compound 0.00316 µM): 45.1% | viability, T/C (second compound 0.1 µM, first compound 0.01 µM): 28.1% | viability, T/C (second compound 0.1 µM, first compound 0.0316 µM): 21.2% | viability, T/C (second compound 0.1 µM, first compound 0.1 µM): 21.8% | viability, T/C (second compound 0.316 µM, first compound 0.000316 µM): 36% | viability, T/C (second compound 0.316 µM, first compound 0.001 µM): 27.3% | viability, T/C (second compound 0.316 µM, first compound 0.00316 µM): 23.3% | viability, T/C (second compound 0.316 µM, first compound 0.01 µM): 13.5% | viability, T/C (second compound 0.316 µM, first compound 0.0316 µM): 11.2% | viability, T/C (second compound 0.316 µM, first compound 0.1 µM): 9.02% | viability, T/C (second compound 1 µM, first compound 0.000316 µM): 22.4% | viability, T/C (second compound 1 µM, first compound 0.001 µM): 22.9% | viability, T/C (second compound 1 µM, first compound 0.00316 µM): 12.2% | viability, T/C (second compound 1 µM, first compound 0.01 µM): 8.4% | viability, T/C (second compound 1 µM, first compound 0.0316 µM): 8.17% | viability, T/C (second compound 1 µM, first compound 0.1 µM): 9.76% | viability, T/C (second compound 3.16 µM, first compound 0.000316 µM): 24.3% | viability, T/C (second compound 3.16 µM, first compound 0.001 µM): 13.1% | viability, T/C (second compound 3.16 µM, first compound 0.00316 µM): 8.4% | viability, T/C (second compound 3.16 µM, first compound 0.01 µM): 5.71% | viability, T/C (second compound 3.16 µM, first compound 0.0316 µM): 4% | viability, T/C (second compound 3.16 µM, first compound 0.1 µM): 3.17% | viability, T/C (second compound 10 µM, first compound 0.000316 µM): 8.63% | viability, T/C (second compound 10 µM, first compound 0.001 µM): 7.55% | viability, T/C (second compound 10 µM, first compound 0.00316 µM): 4.17% | viability, T/C (second compound 10 µM, first compound 0.01 µM): 4.42% | viability, T/C (second compound 10 µM, first compound 0.0316 µM): 2.07% | viability, T/C (second compound 10 µM, first compound 0.1 µM): 1.99%

IC50 (curve of compound): > 10000 nM
SMILES: Cn1nccc1Nc1nccc(-c2ccn(C(CO)c3ccc(Cl)c(F)c3)c(=O)c2)n1 (stereo not drawn)
viability, T/C (compound 0.0316 µM): 128% and 195% | viability, T/C (compound 0.1 µM): 141% and 196% | viability, T/C (compound 0.316 µM): 155% and 220% | viability, T/C (compound 1 µM): 168% and 256% | viability, T/C (compound 3.16 µM): 149% and 198% | viability, T/C (compound 10 µM): 85.6% and 134%

IC50 (compound alone, run of 05/18/2021): > 1000 nM
SMILES: CCN1CCN(Cc2ccc(Nc3ncc(F)c(-c4cc(F)c5nc(C)n(C(C)C)c5c4)n3)nc2)CC1
